Results from a melting point compilation (Tetko et al.; mined from patent text by program, amines drawn as free bases though some values may be those of a salt).

| melting point [°C] | Structure (SMILES) |
| --- | --- |
| 207 | Cc1cn2c(N)c(Cl)cc(C(=O)NCC3CCN(C(C)C(=O)C(C)(C)C)CC3)c2n1 (stereo not drawn) |
| 90 | Nc1cc(Br)c(OC(F)(F)C(F)Cl)cc1[N+](=O)[O-] (stereo not drawn) |
| 128 to 131 | COc1cc(C(=O)c2ccc(Cl)cc2)cc([N+](=O)[O-])c1O |
| 104 | CCOC(=O)C(C)Oc1ccc(Oc2nnc3cc(Br)ccc3n2)cc1 (stereo not drawn) |
| 126 to 128 | C[Si](C)(C)CCOCn1c(-c2cnn(-c3c(Cl)cc(C(F)(F)F)cc3Cl)n2)nc([N+](=O)[O-])c1Br |
| 197 | O=c1[nH]cnc2c1nc(CC1CCN(Cc3ccccc3)CC1)n2Cc1ccc(F)cc1 |
| 89 to 91 | CCOC(=O)[C@H](Cc1cccc(-c2ccc3ccccc3c2)c1)NC(=O)C(F)(F)F |
| 56 to 58 | Cc1nc2c(O[Si](C)(C)C(C)(C)C(C)C)c(CC[C@@H](O)c3ccccc3)c(C(=O)N(C)C)cn2c1C |
| 128 to 130 | Cc1cc(C)c(S(=O)(=O)On2nnc3ccccc32)c(C)c1 |
| 165 to 167 | CCCCc1nc2cccc(C(=O)O)c2n1Cc1ccc(-c2ccccc2-c2nc(=O)o[nH]2)cc1 |
| 261 to 264 | CC(C)(N)[C@H]1CCN(c2c(F)cc3c(=O)c(C(=O)O)cn(C4CC4)c3c2F)C1 |
| 143 to 152 | COC(=O)c1cc(N)c(C(F)(F)F)cc1NC(C)=O |
| 90 | COCCNc1cc(Cl)cc(NCCOC)c1[N+](=O)[O-] |
| 167 to 168 | COc1ccc(-n2nc(NC(=O)N(C)C)cc2-c2ccc(OCCO)cc2)cc1 |
| 188 to 191 | COc1ccc(Nc2cc(-c3ccccc3)nc(N3CCC(O)CC3)n2)cc1Cl |
| 176 to 178 | CCN1c2ncc(CCc3ccncc3)cc2C(=O)Nc2c(C)ccnc21 |
| 226 | Cc1n[nH]c(=O)n1-c1ccc([N+](=O)[O-])cc1 |
| 243 to 244 | CC(C)n1nc(-c2sc(NC(=O)COc3ccccc3)nc2-c2ccccc2)ccc1=O |
| 107 to 109 | CC(C)Nc1ccc(-c2ncc(C(F)(F)F)cc2Cl)cc1[N+](=O)[O-] |
| 91 | CCN1C(=O)C(OC(=O)C(C)(C)C)=C(c2c(C)cc(C)cc2C)C1=O |
| 119 to 122 | COc1cccc([C@H]2O[C@H](CC(=O)Nc3cccc(CCCC(=O)O)c3)C(=O)N(CC(C)(C)CO)c3ccc(Cl)cc32)c1OC |
| 194 to 197 | Cc1ccc(-c2n[nH]cc2-c2ccnc(Cl)n2)cc1 |
| 52 to 53 | COC(=O)c1ccc(CCCCc2c(C)cc(C)cc2C)cc1 |

| melting point [°C] | Structure (SMILES) |
| --- | --- |
| 128 to 129 | Cc1cc(-c2ccc(C#N)cc2)c(C)n1Cc1cnc(Cl)c(CO)c1 |
| 122 to 123 | CC(C)S(=O)(=O)c1cc(C#N)c(N)c(OCCc2ccccn2)c1 |
| 126 to 128 | CCOC(=O)C(=O)Nc1c([N+](=O)[O-])sc2ccc(Cl)cc12 |
| 154 to 156 | COC(=O)c1ccc2oc(-c3cc(C)ccc3OC)cc(=O)c2c1 |
| 196 to 197 | ClC1=Nc2cc(Br)ccc2Oc2cscc21 |
| 78 to 78.5 | C=CCC(CO)(NC)c1ccc(Cl)c(Cl)c1 (stereo not drawn) |
| 91 to 92 | CCOC(=O)c1c(O)c2cc(F)ccc2c(=O)n1CC(C)C |
| 236 | CCOC(=O)Cn1c(=O)c(C#N)c(N2CCN(C(=O)c3cccs3)CC2)c2cccnc21 |
| 83 to 84 | CCCCc1ccc(OCCN2CCN(c3cc(Cl)nnc3Cl)CC2)cc1 |
| 259 to 260 | COc1cccc(CNC(=O)c2nc3scc(-c4cccc(-c5ccc(C(=O)O)cc5)c4)c3c(=O)[nH]2)c1 |
| 162 to 165 | CCOC(=O)CSc1nc(Cl)cc(NN=Cc2ccc(Cl)cc2)n1 |
| 238 to 240 | COc1cc(NC(=O)Nc2c(-c3ccccc3Cl)c3cc(C)ccc3oc2=O)cc(OC)c1OC(C)=O |
| 202 | Cc1nc(C)c(C(=O)Nc2cc(Oc3ccc4nc(NC(=O)C5CC5)cn4n3)ccc2F)o1 |
| 163 to 165 | CCOc1ccc(C(=O)NCc2ccc3c(c2)C(=O)N(C2(C)CCC(=O)NC2=O)C3=O)cc1 (stereo not drawn) |
| 140 to 141 | CCCC(CCC)n1nnc2c(Nc3c(Br)cc(OC)cc3OC)nc(C)cc21 |
| 195 to 197 | CC1(C)CC(C2=NN(CC#N)C(=O)N(/N=C/c3cncc(F)c3)C2)=NO1 |
| 160 to 162 | COC(=O)Nc1ccccc1CS(=O)c1ncc(C(F)(F)F)cc1Cl (stereo not drawn) |
| 212 to 213 | CC(C)Oc1cc(Oc2ccc(S(C)(=O)=O)cn2)cc2cc(C3=NCC(CC(N)=O)S3)[nH]c12 (stereo not drawn) |
| 142 to 144 | Cc1ccccc1C(=O)Nc1ccc(-n2nc(C(F)(F)F)cc2C2CC2)c(F)c1 |
| 50 to 51 | CCOC(=O)COC(=O)c1c(Cl)cccc1Cl |
| 309 to 310 | NS(=O)(=O)c1ccc(C2(c3nc4cc(F)ccc4[nH]3)C=C(C(F)(F)F)NN2)cc1 (stereo not drawn) |
| 70 to 72 | CCOC(=O)c1cnn(-c2ccc(Cl)cc2C(F)(F)F)c1C#N |
| 128 to 132 | CN(C)C=C(C=O)c1cccc(C(F)(F)F)c1 |

The next lines start with the molecule.

| Structure (SMILES) | melting point [°C] |
| --- | --- |
| CCOC(=O)c1cccc(Cn2cnc3ccccc32)c1 | 68 to 70 |
| O=c1ccn([C@H]2C=C[C@@H](O)CC2)c(=O)[nH]1 (racemic) | 161 to 162 |
| Oc1ccc(CCCCn2cncn2)cc1 | 135 to 136 |
| CCCCCCCCCCCCCCCCNc1ccc(C(=O)OC)cc1 | 74 to 75 |
| CC(=O)Nc1nc(CCc2ccc(NC(=O)OC(C)(C)C)cc2)c(C(=O)NCc2ccccc2)s1 | 184 to 185 |
| CC(C)c1c(CO)c(-c2ccc(F)cc2)nc2ccccc12 | 208 to 210 |
| C=CC(=O)NC(C)(C)C(=O)NCC(OC)OC | 80 to 82 |
| Cc1cccc(C)c1NC(C)(C)C(=O)O | 148 |
| NS(=O)(=O)c1cc2cc(CBr)ccc2s1 | 171 to 173 |
| Clc1ccc(-n2c(Cn3ccnc3)nc3ccccc32)cc1 | 121 to 122 |
| Nc1ncc(CCCc2cccc3ccccc23)c(N)n1 | 179 to 181 |
| COC(=O)c1cc(O)c2cc(OC)ccc2c1 | 193 to 195 |
| CC1(C)SC(=O)C2OC=CC=C21 (stereo not drawn) | 42 |
| Cc1cccc(C)c1NC(=O)Cn1ccnc1 | 160 to 162 |
| CC(C)(C)OC(=O)Oc1ccc(C(=O)c2ccc(OC(=O)OC(C)(C)C)cc2)cc1 | 141 to 143 |
| Cc1ccc([C@H](CC(=O)O)NC(=O)Nc2c(O)c3ccccc3n(Cc3ccccc3Cl)c2=O)cc1 | 134 to 136 |
| CSc1ncccc1OCCO | 80 |
| CC(=O)OCC1CC2c3cccc4c3C(CC2N(C)C1)CN4C(C)=O (stereo not drawn) | 172 to 177 |
| Cc1ccccc1C(=O)N[C@@H](CC(C)C)C(=O)N[C@@H](C(C)C)[C@@H](O)c1c(-c2ccccc2)c1=O | 101 to 105 |

| Structure (SMILES) | melting point [°C] |
| --- | --- |
| OC(Cc1ccc(F)cc1)(Cn1cncn1)c1ccccc1 (stereo not drawn) | 116 to 118 |
| OCc1ccc(Cl)cc1Cc1ccccc1 | 46.5 to 49 |
| CC(C)NC(=O)c1c(NC(=O)c2cc(C(F)(F)F)nn2-c2ncccc2Cl)c(Cl)cc2cn[nH]c12 | 245 to 247 |
| O=c1c(NCCCBr)c(OC2CCCCC2)c1=O | 68 to 70 |
| CC(C)(C)C(=O)OCOC(=O)C(C)(C)n1nc2ccc(NCCCN3CCC(OC(c4ccccc4)c4ccccc4)CC3)nn2c1=O | 162 |
| Cc1cnc(N2CCC(c3ccc(N)cc3)CC2)n1C | 219 to 220 |
| CC(C)(C)OC(=O)NCc1cccc(CC(=O)O)c1 | 95 to 96.5 |
| COCCCCCCCCCCCc1nnn[nH]1 | 66.3 to 68.3 |
| O=C1c2cc(O)ccc2OCN1CCO | 148 to 150 |
| Cc1ccc(S(=O)(=O)NC(=N)CCN2CCOC2=O)cc1 | 129 to 134 |
| CS(=O)(=O)c1ccc(-c2ccccc2Cc2cccc(F)c2)cc1 | 97 to 98 |
| CC(=O)OC1CC(C)(C)N(OC(C)=O)C(C)(C)C1 | 72 to 73 |
| O=C(O)c1cccc(NC(=O)C(CS)Cc2noc3ccccc23)c1 (stereo not drawn) | 207 to 209 |
| COCCCCCC=C(NC(=O)C1CC1(C)C)C(=O)O (stereo not drawn) | 71 to 72 |
| Clc1cccc(N2CCN(c3nc4cccccc-4n3)CC2)c1 | 217 to 219 |
| CC1=C(CCN(O)C(N)=O)/C(=C/c2ccc(S(C)=O)cc2)c2ccccc21 (stereo not drawn) | 166 to 169 |
| Oc1ccccc1Nc1cc[nH]n1 | 163 to 164 |
| CN(C)C(=O)n1oc(CCl)cc1=O | 89 to 90 |
| CCCCC(CC)CNCCCOc1ccc2ccccc2c1 (stereo not drawn) | 97 |

| Structure (SMILES) | melting point [°C] |
| --- | --- |
| Fc1ccc2c(C3CCN(CC4COc5ccccc5O4)CC3)noc2c1 (stereo not drawn) | 86 to 87 |
| CCCCCCCCCCCCCCc1ccc(O)c(CC)c1 | 45.5 to 46.5 |
| C=CC(=O)OCC(CCCCCCCCCCCOc1ccc(-c2cccc(F)c2F)cc1)COC(=O)C=C | 33.4 to 34.4 |
| CCCCn1c(=O)c2[nH]cnc2n(CCCC)c1=S | 137 |
| COC(=O)c1cccc2c1Nc1cc(I)ccc1C2 | 108 to 110 |
| Cc1ccc2c(c1)CC(=S)N2C | 143 to 145 |
| COc1ccc(/C=C(\C#N)c2c(F)c(F)c(F)c(F)c2F)cc1OC1CCCC1 | 94.5 to 96 |
| FC(F)(F)c1cccc(C2OC3(CCNCC3)N3CCCCC23)c1 (stereo not drawn) | 158 to 160 |
| CCOC(=O)c1[nH]cc2c1NC1=C(C(=O)CCC1)C2c1cnc(Sc2nc3ccccc3[nH]2)s1 (stereo not drawn) | 194 |
| O=c1c(O)c(-c2ccco2)oc2ccccc12 | 173 to 174 |
| CCC1=C(C#N)C(c2cccc(C#N)c2Cl)c2c[nH]nc2N1 (stereo not drawn) | > 300 |
| Cc1nc(N)cc(-n2ccc3ccccc32)n1 | 176 to 177 |
| CN=Cc1c(C(=O)OC)[nH]c2c(C)ccc(C)c12 | 261 to 262 |
| CCC(=O)OC1CCC2C3CCC4=CC(=O)CCC4(C=O)C3CCC12C (stereo not drawn) | 119 to 121 |
| N#CC(C#N)=C(NCCCN1CCCCC1)NCCCN1CCCCC1 | 110 to 112 |
| Cc1ccc(N2CCN(c3c(C)c(C)c4c(c3C)CC(C)O4)CC2)cc1 (stereo not drawn) | 150 to 151 |
| COc1ccc2ccc(NC(=O)c3c(F)cccc3F)nc2n1 | 219 to 220 |
| Cc1nc(CN)c2n1-c1ccc(Cl)cc1C(c1ccccc1)=NC2 | 217 to 219 |
| O=C(O)C=Nc1cccc(F)c1C(=O)O | 169 |
